Source: ChEMBL document CHEMBL4507276 (2021)

Tests used:
[1] = target: Mitogen-activated protein kinase kinase kinase 13 (Homo sapiens) (UniProt O43283); settings: Compound concentration 1000.0 nM
[2] = target: Cannabinoid receptor 1 (Homo sapiens) (UniProt P21554); assay: CB1 Eurofins-Panlabs selectivity data (BI); settings: Compound concentration 10.0 uM
[3] = target: Maternal embryonic leucine zipper kinase (Homo sapiens) (UniProt Q14680); assay: MELK Invitrogen selectivity data (BI); settings: Compound concentration 3.0 uM
[4] = target: MAO-A (amine oxidase [flavin-containing] A) (Rattus norvegicus, UniProt P21396); assay: MAO-A_ANTAG Cerep selectivity data (BI); set-up: mode of action antagonist; scale not given: the % may be the effect or the level left; settings: compound concentration 20 uM, read-out: % Ctrl
[5] = target: Somatostatin receptor type 1 (Homo sapiens) (UniProt P30872); assay: SST1H_AGON Cerep selectivity data (BI); settings: filed as agonist, Compound concentration 20.0 uM
Somatostatin receptor type 1 (Homo sapiens), sequence (P30872 whole entry): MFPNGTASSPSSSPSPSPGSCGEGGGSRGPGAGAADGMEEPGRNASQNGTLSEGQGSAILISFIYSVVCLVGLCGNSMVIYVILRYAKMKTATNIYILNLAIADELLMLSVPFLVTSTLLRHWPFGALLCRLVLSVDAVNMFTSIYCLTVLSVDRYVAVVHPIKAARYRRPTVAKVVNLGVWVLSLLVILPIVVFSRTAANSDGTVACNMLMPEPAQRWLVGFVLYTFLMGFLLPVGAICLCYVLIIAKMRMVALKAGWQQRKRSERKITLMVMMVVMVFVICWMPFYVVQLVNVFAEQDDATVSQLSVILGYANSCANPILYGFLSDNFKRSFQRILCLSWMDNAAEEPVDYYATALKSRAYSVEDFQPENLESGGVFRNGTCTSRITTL

[6] = target: 5-hydroxytryptamine receptor 2B (Homo sapiens) (UniProt P41595); assay: 5HT2B/H AG Cerep selectivity data (BI); settings: filed as agonist, Compound concentration 20.0 uM
[7] = target: Insulin receptor (Homo sapiens) (UniProt P06213); assay: INSR Invitrogen selectivity data (BI); settings: Compound concentration 3.0 uM
Insulin receptor (Homo sapiens), sequence (P06213 28-758 limits assumed): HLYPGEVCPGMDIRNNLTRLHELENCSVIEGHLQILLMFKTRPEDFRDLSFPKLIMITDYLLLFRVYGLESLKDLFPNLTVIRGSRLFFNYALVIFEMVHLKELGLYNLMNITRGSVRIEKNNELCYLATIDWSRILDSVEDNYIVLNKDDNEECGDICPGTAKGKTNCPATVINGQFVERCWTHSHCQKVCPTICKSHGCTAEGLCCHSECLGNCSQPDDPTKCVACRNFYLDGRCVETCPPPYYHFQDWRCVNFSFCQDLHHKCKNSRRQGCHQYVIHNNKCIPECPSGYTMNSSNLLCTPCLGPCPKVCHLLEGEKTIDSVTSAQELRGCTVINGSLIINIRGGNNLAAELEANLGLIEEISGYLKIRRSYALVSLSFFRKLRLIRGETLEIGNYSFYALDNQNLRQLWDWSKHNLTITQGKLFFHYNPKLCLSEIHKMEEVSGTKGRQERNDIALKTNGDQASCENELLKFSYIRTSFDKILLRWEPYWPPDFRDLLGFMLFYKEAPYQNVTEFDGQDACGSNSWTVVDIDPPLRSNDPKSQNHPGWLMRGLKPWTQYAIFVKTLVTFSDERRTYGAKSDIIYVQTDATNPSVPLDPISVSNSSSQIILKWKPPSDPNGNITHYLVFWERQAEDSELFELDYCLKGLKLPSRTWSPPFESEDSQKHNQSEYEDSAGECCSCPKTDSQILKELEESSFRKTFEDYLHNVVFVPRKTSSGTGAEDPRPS
Insulin receptor (Homo sapiens), sequence (P06213 763-1382 limits assumed): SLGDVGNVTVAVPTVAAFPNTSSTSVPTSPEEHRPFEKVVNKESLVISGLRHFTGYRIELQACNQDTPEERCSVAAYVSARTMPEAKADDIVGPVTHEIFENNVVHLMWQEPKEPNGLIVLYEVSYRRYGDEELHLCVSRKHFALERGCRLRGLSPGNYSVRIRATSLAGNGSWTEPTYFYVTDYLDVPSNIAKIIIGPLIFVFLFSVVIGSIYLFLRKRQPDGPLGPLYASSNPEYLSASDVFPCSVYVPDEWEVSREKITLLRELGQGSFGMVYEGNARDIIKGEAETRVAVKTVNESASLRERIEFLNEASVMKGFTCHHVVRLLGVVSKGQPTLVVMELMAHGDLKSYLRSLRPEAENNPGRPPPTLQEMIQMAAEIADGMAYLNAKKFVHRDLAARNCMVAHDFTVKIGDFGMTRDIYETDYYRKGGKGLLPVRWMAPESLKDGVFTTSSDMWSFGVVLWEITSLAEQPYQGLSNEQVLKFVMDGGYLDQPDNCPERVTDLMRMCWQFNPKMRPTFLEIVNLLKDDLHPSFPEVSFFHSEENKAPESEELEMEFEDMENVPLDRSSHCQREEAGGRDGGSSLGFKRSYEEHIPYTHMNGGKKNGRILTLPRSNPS

[8] = target: T1, 5-hydroxytryptamine receptor 1A (Homo sapiens) (UniProt P08908); assay: 5HT1A/HU Eurofins-Panlabs selectivity data (BI); settings: Compound concentration 10.0 uM
T1 sequence (whole entry): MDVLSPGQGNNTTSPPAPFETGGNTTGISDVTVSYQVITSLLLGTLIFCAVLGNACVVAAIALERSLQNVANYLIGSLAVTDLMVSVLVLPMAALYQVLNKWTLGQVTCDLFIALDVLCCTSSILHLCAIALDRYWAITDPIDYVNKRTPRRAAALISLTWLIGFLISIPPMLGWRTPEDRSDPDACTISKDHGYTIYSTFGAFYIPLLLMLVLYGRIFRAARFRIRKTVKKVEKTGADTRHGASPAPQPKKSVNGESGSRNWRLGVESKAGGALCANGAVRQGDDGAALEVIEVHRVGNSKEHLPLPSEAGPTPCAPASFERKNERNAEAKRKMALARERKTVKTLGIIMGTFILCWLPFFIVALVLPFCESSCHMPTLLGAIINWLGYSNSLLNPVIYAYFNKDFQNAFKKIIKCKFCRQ

[9] = target: Dual specificity protein kinase CLK4 (Homo sapiens) (UniProt Q9HAZ1); assay: CLK4 Invitrogen selectivity data (BI); settings: Compound concentration 3.0 uM
[10] = target: LIM domain kinase 1 (Homo sapiens) (UniProt P53667); assay: LIMK1 Invitrogen selectivity data (BI); settings: Compound concentration 3.0 uM
LIM domain kinase 1 (Homo sapiens), sequence (P53667 whole entry, looked up, the tested form may be a part): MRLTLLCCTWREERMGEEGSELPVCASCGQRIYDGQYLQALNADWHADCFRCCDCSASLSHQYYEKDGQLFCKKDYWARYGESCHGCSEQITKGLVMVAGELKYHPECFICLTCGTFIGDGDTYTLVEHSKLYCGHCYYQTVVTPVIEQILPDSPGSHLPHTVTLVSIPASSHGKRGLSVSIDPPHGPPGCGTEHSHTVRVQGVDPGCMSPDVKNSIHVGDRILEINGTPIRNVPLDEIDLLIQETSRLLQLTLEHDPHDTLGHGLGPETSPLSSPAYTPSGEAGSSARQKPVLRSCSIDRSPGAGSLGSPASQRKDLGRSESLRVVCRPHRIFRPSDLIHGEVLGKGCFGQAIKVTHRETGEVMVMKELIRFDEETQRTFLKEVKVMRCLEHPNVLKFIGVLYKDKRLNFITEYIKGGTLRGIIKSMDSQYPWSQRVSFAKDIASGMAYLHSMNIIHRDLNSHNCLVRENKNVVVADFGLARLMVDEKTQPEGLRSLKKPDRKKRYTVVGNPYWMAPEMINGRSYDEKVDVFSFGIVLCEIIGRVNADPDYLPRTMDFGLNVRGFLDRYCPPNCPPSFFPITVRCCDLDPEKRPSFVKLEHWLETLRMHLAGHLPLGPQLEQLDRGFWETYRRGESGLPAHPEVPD

[11] = target: Glycogen synthase kinase-3 beta (Homo sapiens) (UniProt P49841); assay: GSK3B Invitrogen selectivity data (BI); settings: Compound concentration 3.0 uM
Glycogen synthase kinase-3 beta (Homo sapiens), sequence (P49841 whole entry, looked up): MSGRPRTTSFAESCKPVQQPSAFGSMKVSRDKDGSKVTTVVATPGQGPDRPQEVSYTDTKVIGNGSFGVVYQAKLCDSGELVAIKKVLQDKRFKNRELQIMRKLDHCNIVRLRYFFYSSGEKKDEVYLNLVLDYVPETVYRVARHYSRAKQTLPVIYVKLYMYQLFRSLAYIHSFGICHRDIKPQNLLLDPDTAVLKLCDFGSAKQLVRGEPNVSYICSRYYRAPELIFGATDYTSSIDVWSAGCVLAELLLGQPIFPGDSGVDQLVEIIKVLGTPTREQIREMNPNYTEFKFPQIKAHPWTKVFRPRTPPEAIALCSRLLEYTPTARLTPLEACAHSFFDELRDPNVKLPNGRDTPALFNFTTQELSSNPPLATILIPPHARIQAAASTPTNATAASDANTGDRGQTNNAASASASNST

[12] = target: Mitogen-activated protein kinase 14 (Homo sapiens) (UniProt Q16539); assay: MAPK14 Invitrogen selectivity data (BI); settings: Compound concentration 3.0 uM
Mitogen-activated protein kinase 14 (Homo sapiens), sequence (Q16539 whole entry): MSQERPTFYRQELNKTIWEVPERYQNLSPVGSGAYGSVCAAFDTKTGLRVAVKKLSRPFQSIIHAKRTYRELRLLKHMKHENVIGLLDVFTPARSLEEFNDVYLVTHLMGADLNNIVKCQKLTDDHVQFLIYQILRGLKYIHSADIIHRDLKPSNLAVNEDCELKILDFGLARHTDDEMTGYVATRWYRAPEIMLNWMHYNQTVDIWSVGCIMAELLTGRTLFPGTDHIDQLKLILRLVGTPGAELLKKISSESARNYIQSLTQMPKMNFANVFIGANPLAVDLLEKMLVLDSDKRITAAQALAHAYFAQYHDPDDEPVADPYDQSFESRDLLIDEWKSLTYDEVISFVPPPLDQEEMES

[13] = target: T2, Mitogen-activated protein kinase 12 (Homo sapiens) (UniProt P53778); assay: MAPK12 Invitrogen selectivity data (BI); settings: Compound concentration 3.0 uM
T2 sequence (whole entry): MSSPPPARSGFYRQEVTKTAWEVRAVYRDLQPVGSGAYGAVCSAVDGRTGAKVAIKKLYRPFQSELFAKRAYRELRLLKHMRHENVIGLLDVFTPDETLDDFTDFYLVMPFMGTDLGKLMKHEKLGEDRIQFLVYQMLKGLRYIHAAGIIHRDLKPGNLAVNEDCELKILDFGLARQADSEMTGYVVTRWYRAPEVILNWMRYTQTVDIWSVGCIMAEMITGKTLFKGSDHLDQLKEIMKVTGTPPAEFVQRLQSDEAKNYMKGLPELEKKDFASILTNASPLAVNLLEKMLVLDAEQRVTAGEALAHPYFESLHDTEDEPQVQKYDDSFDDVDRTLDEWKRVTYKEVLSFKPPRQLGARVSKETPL

[14] = target: B2 bradykinin receptor (Homo sapiens) (UniProt P30411); assay: B2/HUM Cerep selectivity data (BI); settings: Compound concentration 20.0 uM
[15] = target: Serine/threonine-protein kinase pim-2 (Homo sapiens) (UniProt Q9P1W9); assay: PIM2 Invitrogen selectivity data (BI); settings: Compound concentration 3.0 uM
[16] = target: Sodium channel regulatory subunit beta-1 (Rattus norvegicus) (UniProt Q00954); assay: NA+/SITE2/R Cerep selectivity data (BI); settings: Compound concentration 20.0 uM
Sodium channel regulatory subunit beta-1 (Rattus norvegicus), sequence (Q00954 whole entry): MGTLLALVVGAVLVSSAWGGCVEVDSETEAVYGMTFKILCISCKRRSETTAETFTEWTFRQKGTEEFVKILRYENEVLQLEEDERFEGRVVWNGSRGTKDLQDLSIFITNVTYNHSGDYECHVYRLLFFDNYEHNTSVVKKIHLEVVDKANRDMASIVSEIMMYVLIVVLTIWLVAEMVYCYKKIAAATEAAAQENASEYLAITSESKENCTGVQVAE

[17] = test system: Tyrosine-protein kinase ABL1 (Homo sapiens), P00519 [Y253F]; assay: ABL1 Y253F Invitrogen selectivity data (BI); settings: Compound concentration 3.0 uM
[18] = target: Tyrosine-protein kinase Lyn (Homo sapiens) (UniProt P07948); assay: LYNAKINASE(H) Cerep selectivity data (BI); settings: Compound concentration 20.0 uM
Tyrosine-protein kinase Lyn (Homo sapiens), sequence (P07948 2-512 limits assumed): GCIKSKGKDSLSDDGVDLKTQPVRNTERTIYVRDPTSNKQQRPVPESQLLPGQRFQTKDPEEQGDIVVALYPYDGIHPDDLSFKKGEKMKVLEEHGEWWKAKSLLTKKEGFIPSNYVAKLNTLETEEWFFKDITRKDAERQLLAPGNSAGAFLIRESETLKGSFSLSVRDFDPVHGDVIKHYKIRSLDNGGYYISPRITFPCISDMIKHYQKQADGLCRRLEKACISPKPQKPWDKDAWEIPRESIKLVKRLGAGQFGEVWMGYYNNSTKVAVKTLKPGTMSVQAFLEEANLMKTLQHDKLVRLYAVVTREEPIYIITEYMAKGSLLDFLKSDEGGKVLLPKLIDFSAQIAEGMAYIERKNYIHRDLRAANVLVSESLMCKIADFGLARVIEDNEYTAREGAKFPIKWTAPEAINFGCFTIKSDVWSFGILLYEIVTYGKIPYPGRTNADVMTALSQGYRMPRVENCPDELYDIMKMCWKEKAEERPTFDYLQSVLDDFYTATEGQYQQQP

[19] = target: T3, Ephrin type-B receptor 2 (Homo sapiens) (UniProt P29323); assay: EPHB2 Invitrogen selectivity data (BI); settings: Compound concentration 3.0 uM
T3 sequence (whole entry): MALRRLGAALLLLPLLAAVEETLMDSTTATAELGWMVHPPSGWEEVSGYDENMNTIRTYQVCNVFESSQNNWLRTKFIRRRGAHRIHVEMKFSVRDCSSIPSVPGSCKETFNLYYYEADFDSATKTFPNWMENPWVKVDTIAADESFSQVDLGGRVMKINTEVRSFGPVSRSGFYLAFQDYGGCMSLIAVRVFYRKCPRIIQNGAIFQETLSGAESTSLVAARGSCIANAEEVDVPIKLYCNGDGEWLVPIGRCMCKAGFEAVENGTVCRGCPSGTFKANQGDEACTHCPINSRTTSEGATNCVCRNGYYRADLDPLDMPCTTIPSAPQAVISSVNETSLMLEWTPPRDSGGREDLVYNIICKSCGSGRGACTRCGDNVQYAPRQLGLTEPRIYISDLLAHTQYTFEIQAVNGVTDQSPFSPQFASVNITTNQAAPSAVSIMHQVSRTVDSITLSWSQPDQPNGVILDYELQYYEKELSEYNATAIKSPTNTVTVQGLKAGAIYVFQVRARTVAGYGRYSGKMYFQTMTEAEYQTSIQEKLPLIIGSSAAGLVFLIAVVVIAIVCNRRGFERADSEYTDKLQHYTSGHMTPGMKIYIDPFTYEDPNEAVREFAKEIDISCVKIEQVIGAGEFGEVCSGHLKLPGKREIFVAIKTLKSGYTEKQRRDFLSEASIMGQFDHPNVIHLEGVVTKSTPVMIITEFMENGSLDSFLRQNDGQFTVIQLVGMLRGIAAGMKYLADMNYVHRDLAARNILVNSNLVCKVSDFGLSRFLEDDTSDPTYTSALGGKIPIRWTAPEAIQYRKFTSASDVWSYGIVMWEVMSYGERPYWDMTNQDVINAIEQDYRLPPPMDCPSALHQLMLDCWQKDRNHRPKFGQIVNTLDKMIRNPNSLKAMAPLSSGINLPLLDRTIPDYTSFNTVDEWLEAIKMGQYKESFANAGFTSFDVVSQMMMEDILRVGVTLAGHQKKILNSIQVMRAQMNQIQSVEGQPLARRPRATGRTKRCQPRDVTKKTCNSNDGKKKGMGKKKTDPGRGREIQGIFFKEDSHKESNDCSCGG

Mitogen-activated protein kinase kinase kinase 13 (Homo sapiens), sequence (O43283 whole entry): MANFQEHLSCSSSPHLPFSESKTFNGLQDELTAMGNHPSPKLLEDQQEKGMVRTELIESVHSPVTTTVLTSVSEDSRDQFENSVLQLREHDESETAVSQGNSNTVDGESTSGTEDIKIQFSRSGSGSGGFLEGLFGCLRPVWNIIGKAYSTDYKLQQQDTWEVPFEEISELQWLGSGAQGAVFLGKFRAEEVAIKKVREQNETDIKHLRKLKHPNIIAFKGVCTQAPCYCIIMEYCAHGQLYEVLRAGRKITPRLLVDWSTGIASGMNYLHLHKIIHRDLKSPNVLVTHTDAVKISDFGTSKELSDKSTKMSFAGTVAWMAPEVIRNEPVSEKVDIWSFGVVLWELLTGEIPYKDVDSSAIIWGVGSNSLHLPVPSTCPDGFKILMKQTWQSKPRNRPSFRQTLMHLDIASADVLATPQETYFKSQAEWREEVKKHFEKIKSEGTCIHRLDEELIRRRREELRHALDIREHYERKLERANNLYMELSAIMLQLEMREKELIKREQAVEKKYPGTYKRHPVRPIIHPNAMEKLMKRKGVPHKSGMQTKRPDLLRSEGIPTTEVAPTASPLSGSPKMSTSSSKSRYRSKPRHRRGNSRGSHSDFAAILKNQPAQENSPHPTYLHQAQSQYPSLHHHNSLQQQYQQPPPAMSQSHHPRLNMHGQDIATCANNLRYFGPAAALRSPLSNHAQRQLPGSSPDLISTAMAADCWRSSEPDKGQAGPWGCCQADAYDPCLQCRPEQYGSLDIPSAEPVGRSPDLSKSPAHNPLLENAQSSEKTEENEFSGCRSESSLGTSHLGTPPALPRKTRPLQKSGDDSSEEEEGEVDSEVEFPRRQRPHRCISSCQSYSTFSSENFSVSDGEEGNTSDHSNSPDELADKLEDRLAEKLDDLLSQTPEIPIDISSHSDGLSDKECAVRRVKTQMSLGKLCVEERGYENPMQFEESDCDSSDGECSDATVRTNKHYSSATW

SMILES | residual activity [1] | residual activity [2] | residual activity [3] | activity at 20 µM [4] | residual activity [5] | residual activity [6] | residual activity [7] | residual activity [8] | residual activity [9] | residual activity [10] | residual activity [11] | residual activity [12] | residual activity [13] | residual activity [14] | residual activity [15] | residual activity [16] | residual activity [17] | residual activity [18] | residual activity [19]
CN(C)C(=O)Cn1cc(-c2nc(C3(c4ccc(-c5cnc(N)nc5)cc4)CC3)no2)cn1 [BI 0153] | 100% | – | – | – | – | – | – | – | – | – | – | – | – | – | – | – | – | – | –
CN(C)C(=O)Cn1cc(-c2nc([C@@](C)(c3ccc(-c4cnc(N)nc4)cc3)C3CC3)no2)cn1 [BI 665915] | – | 91% | 94% | 91% (not active) | 96% | 103% | 100% | 127% | 95% | 96% | 95.5% | 107% | 91.5% | 102% | 101% | 107% | 80% | 87% | 93.5%
